{"source": "patent US6475953B1", "about": "“Composition and method for treating plants with exogenous chemicals” (Monsanto Technology LLC, priority 1996, dated 2002)", "assay_type_in_all_cases": "in vivo", "key": {"[1]": {"system": "Prickly sida (Sida spinosa, SIDSP)", "assay": "Greenhouse herbicidal effectiveness test, percent inhibition, prickly sida", "text": "(§1) The herbicidal effectiveness data set forth herein report “inhibition” as a percentage following a standard procedure in the art which reflects a visual assessment of plant mortality and growth reduction by comparison with untreated plants, made by technicians specially trained to make and record such observations. In all cases. a single technician makes all assessments of percent inhibition within any one experiment or trial. Such measurements are relied upon and regularly reported by Monsanto Company in the course of its herbicide business.\n(§2) The following procedure was used for testing compositions of the Examples to determine herbicidal effectiveness, except where otherwise indicated.\n(§3) Seeds of the plant species indicated were planted in 85 mm square pots in a soil mix which was previously steam sterilized and prefertilized with a 14-14-14 NPK slow release fertilizer at a rate of 3.6 kg/m3. The pots were placed in a greenhouse with sub-irrigation. About one week after emergence, seedlings were thinned as needed, including removal of any unhealthy or abnormal plants, to create a uniform series of test pots.\n(§4) The plants were maintained for the duration of the test in the greenhouse where they received a minimum of 14 hours of light per day. If natural light was insufficient to achieve the daily requirement, artificial light with an intensity of approximately 475 microeinsteins was used to make up the difference. Exposure temperatures were not precisely controlled but averaged about 27° C. during the day and about 18° C. during the night. Plants were sub-irrigated throughout the test to ensure adequate soil moisture levels.\n(§5) A set of pots was left untreated as a reference against which effects of the treatments could later be evaluated.\n(§6) Application of glyphosate compositions was made by spraying with a track sprayer fitted with a 9501E nozzle calibrated to deliver a spray volume of 93 liters per hectare (1/ha) at a pressure of 166 kilopascals (kPa). After treatment, pots were returned to the greenhouse until ready for evaluation.\n(§7) Treatments were made using dilute aqueous compositions. These could be prepared as spray compositions directly from their ingredients, or by dilution with water of preformulated concentrate compositions.\nFor evaluation of herbicidal effectiveness, all plants in the test were examined by a single practiced technician, who recorded percent inhibition, a visual measurement of the effectiveness of each treatment by comparison with untreated plants. […]\nPrickly sida (Sida spinosa, SIDSP) plants were grown and treated by the standard procedures given above. Applications of spray compositions were made 22 days after planting SIDSP, and evaluation of herbicidal inhibition was done 19 days after application.\nPrickly sida (Sida spinosa, SIDSP) plants were grown and treated by the standard procedures given above. Applications of spray compositions were made 23 days after planting SIDSP, and […].\nPrickly sida (Sida spinosa, SIDSP) plants were grown and treated by the standard procedures given above. Applications of spray compositions were made 22 days after planting SIDSP, and evaluation of herbicidal inhibition was done 19 days after application. […]"}, "[2]": {"system": "Velvetleaf (Abutilon theophrasti, ABUTH)", "assay": "Greenhouse herbicidal effectiveness test, percent inhibition, velvetleaf", "text": "as §1, §2, §3, §4, §5, §6, §7\n(§8) For evaluation of herbicidal effectiveness, all plants in the test were examined by a single practiced technician, who recorded percent inhibition, a visual measurement of the effectiveness of each treatment by comparison with untreated plants.\n(§9) Velvetleaf (Abutilon theophrasti, ABUTH) and Japanese millet (Echinochloa crus-galli, ECHCF) plants were grown and treated by the standard procedures given above. […]"}, "[3]": {"system": "Japanese millet (Echinochloa crus-galli, ECHCF)", "assay": "Greenhouse herbicidal effectiveness test, percent inhibition, Japanese millet", "conditions": "for % Inhibition ECHCF: Example 90, evaluation 11 days after application", "text": "as §1, §2, §3, §4, §5, §6, §7, §8, §9"}, "[4]": {"system": "plant species indicated in the Example (ABUTH, ECHCF, SIDSP ...)", "assay": "Greenhouse herbicidal effectiveness test, stated overall or averaged over the plant species of the Example", "conditions": "statement in the discussion of the Example at the place; rates and comparators as stated there", "text": "as §1\nThe following procedure was used for testing compositions of the Examples to determine herbicidal effectiveness, except where otherwise indicated. […]\nas §5\nas §6, with “evaluation. […]” for “evaluation.”\nas §8"}, "[5]": {"conditions": "Sida spinosa, 240 h, read-out: % Inhibition SIDSP"}, "[6]": {"conditions": "Echinochloa crus-galli, 240 h, read-out: % Inhibition ECHCF"}, "[7]": {"conditions": "Example 90, glufosinate rate 50 g a.i./ha, evaluation 11 days after application"}}}
{"compound": "O=C(O)c1cc(Oc2ccc(C(F)(F)F)cc2Cl)ccc1[N+](=O)[O-]", "note": "[Acifluorfen]", "values": [{"measurement": "inhibition at 25 g/ha", "setting": "[1]; [5]", "value": 15, "unit": "%"}, {"measurement": "inhibition at 50 g/ha", "setting": "[1]; [5]", "value": 17, "unit": "%"}, {"measurement": "inhibition at 100 g/ha", "setting": "[1]; [5]", "value": 35, "unit": "%"}, {"measurement": "inhibition at 200 g/ha", "setting": "[1]; [5]", "value": 40, "unit": "%"}, {"measurement": "inhibition at 25 g/ha", "setting": "[2]; Abutilon theophrasti, 240 h, Example 83, acifluorfen rate 25 g a.i./ha, evaluated 10 days after application", "value": 20, "unit": "%"}, {"measurement": "inhibition at 50 g/ha", "setting": "[2]; Abutilon theophrasti, 240 h, Example 83, acifluorfen rate 50 g a.i./ha, evaluated 10 days after application", "value": 32, "unit": "%"}, {"measurement": "inhibition at 100 g/ha", "setting": "[2]; Abutilon theophrasti, 240 h, Example 83, acifluorfen rate 100 g a.i./ha, evaluated 10 days after application", "value": 52, "unit": "%"}, {"measurement": "inhibition at 200 g/ha", "setting": "[2]; Abutilon theophrasti, 240 h, Example 83, acifluorfen rate 200 g a.i./ha, evaluated 10 days after application", "value": 62, "unit": "%"}, {"measurement": "inhibition at 25 g/ha", "setting": "[3]; [6]", "value": 2, "unit": "%"}, {"measurement": "inhibition at 50 g/ha", "setting": "[3]; [6]", "value": 7, "unit": "%"}, {"measurement": "inhibition at 100 g/ha", "setting": "[3]; [6]", "value": 18, "unit": "%"}, {"measurement": "inhibition at 200 g/ha", "setting": "[3]; [6]", "value": 35, "unit": "%"}]}
{"compound": "COC(=O)NS(=O)(=O)c1ccc(N)cc1", "note": "[Asulam (technical)]", "values": [{"measurement": "% Inhibition ABUTH", "setting": "[2]; asulam rate 400 g a.i./ha, evaluation 14 days after application", "value": 17, "unit": "%"}]}
{"compound": "COc1c(Cl)ccc(Cl)c1C(=O)O", "note": "[Dicamba (technical)]", "values": [{"measurement": "% Inhibition SIDSP", "setting": "[1]; dicamba rate 25 g a.i./ha, evaluation 17 days after application", "value": 30, "unit": "%"}, {"measurement": "% Inhibition SIDSP", "setting": "[1]; dicamba rate 50 g a.i./ha, evaluation 17 days after application", "value": 40, "unit": "%"}, {"measurement": "% Inhibition SIDSP", "setting": "[1]; dicamba rate 100 g a.i./ha, evaluation 17 days after application", "value": 50, "unit": "%"}, {"measurement": "% Inhibition SIDSP", "setting": "[1]; dicamba rate 200 g a.i./ha, evaluation 17 days after application", "value": 58, "unit": "%"}]}
{"compound": "C[N+](C)(C)CCCNS(=O)(=O)C(F)(F)C(F)(F)C(F)(F)C(F)(F)C(F)(F)C(F)(F)C(F)(F)C(F)(F)F.[I-]", "note": "[Fluorad FC-135, 3-(((heptadecafluorooctyl)sulfonyl)amino)-N,N,N-trimethyl-1-propaminium iodide]", "values": [{"measurement": "concentration of Fluorad FC-135 which had to be added in tank-mix to Formulation B to bring its herbicidal performance up to that of Formulation C", "setting": "[1]; Example 21, SIDSP, 20 days after application", "value": "~0.1", "unit": "%"}, {"measurement": "concentration of Fluorad FC-135 which had to be added in tank-mix to Formulation B to bring its herbicidal performance up to that of Formulation C", "setting": "[2]; Example 21, ABUTH, 20 days after application", "value": "~0.02", "unit": "%"}, {"measurement": "optimum adjuvant concentration", "setting": "[2]; Example 25, ABUTH, tank-mix adjuvant for glyphosate as Formulation B, 21 days after application", "value": 0.2, "unit": "%"}, {"measurement": "concentration of Fluorad FC-135 which had to be added in tank-mix to Formulation B to bring its herbicidal performance up to that of Formulation C", "setting": "[3]; Example 21, ECHCF, after application", "value": "approximately 0.25%"}, {"measurement": "optimum adjuvant concentration", "setting": "[3]; Example 25, ECHCF, tank-mix adjuvant for glyphosate as Formulation B, 21 days after application", "value": 0.2, "unit": "%"}]}
{"compound": "CP(=O)(O)CCC(N)C(=O)O", "note": "(stereo not drawn) [Glufosinate (technical)]", "values": [{"measurement": "% Inhibition SIDSP", "setting": "[1]; [7]", "value": 5, "unit": "%"}, {"measurement": "% Inhibition SIDSP", "setting": "[1]; Example 90, glufosinate rate 100 g a.i./ha, evaluation 11 days after application", "value": 10, "unit": "%"}, {"measurement": "% Inhibition ABUTH", "setting": "[2]; [7]", "value": 0, "unit": "%"}, {"measurement": "% Inhibition ECHCF", "setting": "[3]; glufosinate rate 50 g a.i./ha", "value": 0, "unit": "%"}, {"measurement": "% Inhibition ECHCF", "setting": "[3]; glufosinate rate 100 g a.i./ha", "value": 0, "unit": "%"}]}
{"compound": "O=C(O)CNCP(=O)(O)O", "note": "[glyphosate, N-phosphonomethylglycine, reference compound]", "values": [{"measurement": "average inhibition of ABUTH", "setting": "[2]; Example 27, average over four glyphosate rates, no excipient, 19 days after application", "value": 32, "unit": "%"}]}
{"compound": "Steareth-20", "values": [{"measurement": "herbicidal effectiveness, overall for the species of the Example, in words", "setting": "[4]", "value": "more effective additives for Formulation B than steareth-10"}]}
{"compound": "ceteareth-30", "values": [{"measurement": "herbicidal effectiveness, overall for the species of the Example, in words", "setting": "[4]", "value": "more effective additives for Formulation B than steareth-10"}]}
